Data taken from the NIST ThermoML archive (doi:10.1016/j.jct.2017.10.014).
Numbers after ± are expanded uncertainties.

Test: xn = mol fraction of the nth substance listed
Conditions: 100 kPa, Liquid, Vibrating tube method

Which mass density (298.15 K, x1 = 0.4958) does the source give for `CC(C)(CO)[C@@H](O)C(=O)NCCCO` [d-Panthenol] + O here?
Its mass density is 1154.87 ± 1.6 kg/m3.

What about the mass density (298.15 K, x1 = 0.5944) of the same molecule?
Its mass density is 1157.16 ± 1.7 kg/m3.

What about the mass density (298.15 K, x1 = 0.708) of the same molecule?
Its mass density is 1159.25 ± 1.7 kg/m3.

And the mass density (298.15 K, x1 = 0.8067)?
The mass density was 1160.22 ± 1.8 kg/m3.

And the mass density (298.15 K, x1 = 0.8753)?
The mass density was 1160.86 ± 1.8 kg/m3.

What about the mass density (298.15 K, x1 = 1) of the same molecule?
The mass density was 1161.68 ± 1.9 kg/m3.

What about the mass density (303.15 K, x1 = 0.0036) of the same molecule?
Its mass density is 1002.18 ± 1.6 kg/m3.

What about the mass density (303.15 K, x1 = 0.0054) of the same molecule?
The mass density was 1005.33 ± 1.6 kg/m3.

What about the mass density (303.15 K, x1 = 0.0071) of the same molecule?
Its mass density is 1008.35 ± 1.6 kg/m3.

What about the mass density (303.15 K, x1 = 0.0089) of the same molecule?
The mass density was 1011.34 ± 1.6 kg/m3.

What about the mass density (303.15 K, x1 = 0.0107) of the same molecule?
Its mass density is 1014.32 ± 1.6 kg/m3.

And the mass density (303.15 K, x1 = 0.0124)?
Its mass density is 1017.07 ± 1.6 kg/m3.

And the mass density (303.15 K, x1 = 0.0142)?
The mass density was 1019.84 ± 1.6 kg/m3.

And the mass density (303.15 K, x1 = 0.0248)?
Its mass density is 1035.87 ± 1.6 kg/m3.

What about the mass density (303.15 K, x1 = 0.031) of the same molecule?
The mass density was 1044.71 ± 1.6 kg/m3.

And the mass density (303.15 K, x1 = 0.0376)?
Its mass density is 1051.55 ± 1.6 kg/m3.

What about the mass density (303.15 K, x1 = 0.0501) of the same molecule?
The mass density was 1064.45 ± 1.6 kg/m3.

And the mass density (303.15 K, x1 = 0.0996)?
Its mass density is 1096.7 ± 1.6 kg/m3.

And the mass density (303.15 K, x1 = 0.1997)?
The mass density was 1127.26 ± 1.6 kg/m3.

What about the mass density (303.15 K, x1 = 0.2495) of the same molecule?
Its mass density is 1134.68 ± 1.6 kg/m3.

What about the mass density (303.15 K, x1 = 0.2871) of the same molecule?
Its mass density is 1139.2 ± 1.6 kg/m3.

What about the mass density (303.15 K, x1 = 0.342) of the same molecule?
Its mass density is 1143.4 ± 1.6 kg/m3.

What about the mass density (303.15 K, x1 = 0.4007) of the same molecule?
The mass density was 1146.9 ± 1.6 kg/m3.

And the mass density (303.15 K, x1 = 0.4958)?
Its mass density is 1151.08 ± 1.6 kg/m3.

And the mass density (303.15 K, x1 = 0.5944)?
The mass density was 1153.51 ± 1.7 kg/m3.

And the mass density (303.15 K, x1 = 0.708)?
The mass density was 1155.76 ± 1.7 kg/m3.

And the mass density (303.15 K, x1 = 0.8067)?
The mass density was 1156.74 ± 1.8 kg/m3.

What about the mass density (303.15 K, x1 = 0.8753) of the same molecule?
Its mass density is 1157.46 ± 1.8 kg/m3.

And the mass density (303.15 K, x1 = 1)?
The mass density was 1158.27 ± 1.9 kg/m3.

What about the mass density (308.15 K, x1 = 0.0036) of the same molecule?
Its mass density is 1000.46 ± 1.6 kg/m3.

What about the mass density (308.15 K, x1 = 0.0054) of the same molecule?
The mass density was 1003.56 ± 1.6 kg/m3.

And the mass density (308.15 K, x1 = 0.0071)?
The mass density was 1006.55 ± 1.6 kg/m3.

What about the mass density (308.15 K, x1 = 0.0089) of the same molecule?
The mass density was 1009.5 ± 1.6 kg/m3.

And the mass density (308.15 K, x1 = 0.0107)?
The mass density was 1012.45 ± 1.6 kg/m3.

And the mass density (308.15 K, x1 = 0.0124)?
Its mass density is 1015.14 ± 1.6 kg/m3.

What about the mass density (308.15 K, x1 = 0.0142) of the same molecule?
The mass density was 1017.89 ± 1.6 kg/m3.

And the mass density (308.15 K, x1 = 0.0248)?
The mass density was 1033.67 ± 1.6 kg/m3.

What about the mass density (308.15 K, x1 = 0.031) of the same molecule?
The mass density was 1042.43 ± 1.6 kg/m3.

And the mass density (308.15 K, x1 = 0.0376)?
The mass density was 1049.07 ± 1.6 kg/m3.

What about the mass density (308.15 K, x1 = 0.0501) of the same molecule?
Its mass density is 1062.19 ± 1.6 kg/m3.

What about the mass density (308.15 K, x1 = 0.0996) of the same molecule?
Its mass density is 1093.45 ± 1.6 kg/m3.

What about the mass density (308.15 K, x1 = 0.1997) of the same molecule?
Its mass density is 1123.64 ± 1.6 kg/m3.

What about the mass density (308.15 K, x1 = 0.2495) of the same molecule?
The mass density was 1130.9 ± 1.6 kg/m3.

What about the mass density (308.15 K, x1 = 0.2871) of the same molecule?
Its mass density is 1135.41 ± 1.6 kg/m3.

And the mass density (308.15 K, x1 = 0.342)?
Its mass density is 1139.69 ± 1.6 kg/m3.

And the mass density (308.15 K, x1 = 0.4007)?
The mass density was 1143.02 ± 1.6 kg/m3.

And the mass density (308.15 K, x1 = 0.4958)?
The mass density was 1147.04 ± 1.6 kg/m3.

And the mass density (308.15 K, x1 = 0.5944)?
Its mass density is 1149.72 ± 1.7 kg/m3.

What about the mass density (308.15 K, x1 = 0.708) of the same molecule?
The mass density was 1152.16 ± 1.7 kg/m3.

What about the mass density (308.15 K, x1 = 0.8067) of the same molecule?
Its mass density is 1153.27 ± 1.8 kg/m3.

And the mass density (308.15 K, x1 = 0.8753)?
Its mass density is 1153.96 ± 1.8 kg/m3.

What about the mass density (308.15 K, x1 = 1) of the same molecule?
Its mass density is 1154.96 ± 1.9 kg/m3.

What about the mass density (313.15 K, x1 = 0.0036) of the same molecule?
The mass density was 998.5 ± 1.6 kg/m3.

And the mass density (313.15 K, x1 = 0.0054)?
Its mass density is 1001.53 ± 1.6 kg/m3.

And the mass density (313.15 K, x1 = 0.0071)?
The mass density was 1004.49 ± 1.6 kg/m3.

What about the mass density (313.15 K, x1 = 0.0089) of the same molecule?
The mass density was 1007.4 ± 1.6 kg/m3.

What about the mass density (313.15 K, x1 = 0.0107) of the same molecule?
The mass density was 1010.32 ± 1.6 kg/m3.

And the mass density (313.15 K, x1 = 0.0124)?
The mass density was 1012.99 ± 1.6 kg/m3.

And the mass density (313.15 K, x1 = 0.0142)?
The mass density was 1015.72 ± 1.6 kg/m3.

And the mass density (313.15 K, x1 = 0.0248)?
The mass density was 1031.28 ± 1.6 kg/m3.

What about the mass density (313.15 K, x1 = 0.031) of the same molecule?
Its mass density is 1039.83 ± 1.6 kg/m3.

What about the mass density (313.15 K, x1 = 0.0376) of the same molecule?
Its mass density is 1046.45 ± 1.6 kg/m3.

And the mass density (313.15 K, x1 = 0.0501)?
Its mass density is 1059.96 ± 1.6 kg/m3.

And the mass density (313.15 K, x1 = 0.0996)?
Its mass density is 1090.55 ± 1.6 kg/m3.

What about the mass density (313.15 K, x1 = 0.1997) of the same molecule?
Its mass density is 1119.93 ± 1.6 kg/m3.

What about the mass density (313.15 K, x1 = 0.2495) of the same molecule?
Its mass density is 1127.21 ± 1.6 kg/m3.

And the mass density (313.15 K, x1 = 0.2871)?
Its mass density is 1131.52 ± 1.6 kg/m3.

What about the mass density (313.15 K, x1 = 0.342) of the same molecule?
The mass density was 1135.87 ± 1.6 kg/m3.

And the mass density (313.15 K, x1 = 0.4007)?
The mass density was 1139.25 ± 1.6 kg/m3.

What about the mass density (313.15 K, x1 = 0.4958) of the same molecule?
The mass density was 1143.29 ± 1.6 kg/m3.

What about the mass density (313.15 K, x1 = 0.5944) of the same molecule?
Its mass density is 1145.77 ± 1.6 kg/m3.

And the mass density (313.15 K, x1 = 0.708)?
Its mass density is 1148.24 ± 1.7 kg/m3.

And the mass density (313.15 K, x1 = 0.8067)?
The mass density was 1149.57 ± 1.8 kg/m3.

What about the mass density (313.15 K, x1 = 0.8753) of the same molecule?
The mass density was 1150.3 ± 1.8 kg/m3.

What about the mass density (313.15 K, x1 = 1) of the same molecule?
Its mass density is 1151.46 ± 1.9 kg/m3.
